Patent US8058314B2, “Conductance of improperly folded proteins through the secretory pathway and related methods for treating disease” (Yale University, priority 1999, dated 2011)
Entries after “also recorded” stand apart in the source; their conditions may differ.

Legend:
[1] = type: in vivo, mice
Experimental: A nebulization chamber was constructed using an 8 quart plastic container with a lid that creates an air tight seal. A ‘T piece nebulizer device’ (Hudson RCI T-up Draft Nebumist Nebulizer) was inserted into the container via an opening located on the side of the chamber. The nebulization device was filled with 5 mls of 1 μM thapsigargin dissolved in physiologic saline solution. The gas source (high pressure air) was attached to the set up to create a flow rate of ≧12 liters per minute. Flow was adjusted to maintain a fine visible mist throughout the chamber. Numerous small ventilation holes were placed at the top of the chamber to ensure the escape of carbon dioxide. The nebulization chamber was kept in a fume hood during the experiments to allow for dispersion of any escaped mist.
Mice or cells were placed into the chamber prior to the onset of nebulization. Mice were observed continuously during the nebulization treatments and observations were documented every 15-30 minutes. Lungs were prepared for histologic analysis according to methods described previously (Courtois-Coutry et al., Cell 90:501-510 (1997)).
To examine this issue, six mice were exposed for 3 to 4 hours per day for 14 days to a nebulized solution of 1 μM thapsigargin in normal saline. […] At the end of the 2 week trial, the animals were sacrificed and 4 were processed for histopathologic examination of the lungs.
Wild type and CF mice were exposed to a humidified atmosphere (produced as described in Example 4) containing 1 μM thapsigargin for 3 hours/day for 7-14 days. […] The night before the NPD procedure was performed, mice were taken off Colyte and given water or alimentum (liquid formula). Wet food was also withheld. These steps were taken to decrease the risk of dehydration and/or intestinal obstruction that occur with sedation and dehydration.

[2] = tested on: α1-antitrypsin, null (Hong Kong); assay: Secretion of α1-antitrypsin null (Hong Kong) from stably transfected mouse hepatoma cells, pulse-chase; type: cell-based; conditions: 1 μM thapsigargin for 3 hours during chase
Experimental: Experiment 2 is repeated using a cell line that expresses a retention mutation for cc1-antitrypsin, such as the secretion-incompetent variant, null (Hong Kong), retained in stably transfected mouse hepatoma cells (J. Biol. Chem. 269:7514-7519 (1994)). Changes in the cell phenotype are assessed by assaying cells for secretion of a 1-antitrypsin (detailed description in J. Biol. Chem. 268:2001-2008 (1993)).
Briefly, cell monolayers are pulse labeled with [^35S] methionine for 30 minutes, after which the radiolabeled media is removed and replaced with media containing an excess of unlabeled methionine. During the chase period, one set of monolayers is treated with 1 μM thapsigargin for 3 hours, while another set is incubated for 3 hours in drug free media. Secretion of α1-antitrypsin into the media is assessed by immunoprecipitation followed by electrophoresis and autoradiography.
Results. Cells expressing the secretion-incompetent variant of α1-antitrypsin, null (Hong Kong), are pulse labeled for 30 minutes with [^35S] methionine, after which they were incubated in non-radioactive media for 3 hours in the presence or absence of 1 μM thapsigargin. After this chase incubation, the media is collected and subjected to immunoprecipitation with anti-α1-antitrypsin antibodies. Immunoprecipitates are analyzed by SDS-PAGE followed by autoradiography.

ΔF508-CFTR = assay: Western blot of mature CFTR in CFPAC cells; type: cell-based, human; conditions: thapsigargin treatment as in Example 3
Experimental: Materials and Methods. CFPAC cells were grown to confluence in 10 cm^2 plates (Corning Costar, Cambridge, Mass.). Following thapsigargin treatment performed as described in Example 3, cells were harvested by scraping in PBS, lysed by sonication, and a crude membrane pellet was recovered by centrifugation at 50,000×g for 2 hrs. Electrophoresis and Western blotting were performed as described (Gottardi, C. J. and Caplan, M. J., J. Cell. Biol. 121, 283 (1993)). CFTR protein was detected using an antibody directed against the CFTR nucleotide binding domain 1 (Catalog number 05585, clone L12B4) from Upstate Biotechnology (Lake Placid N.Y.).

ΔF508 CFTR mice = assay: Nasal potential difference (NPD) in CF mice homozygous for the ΔF508 mutation; type: in vivo; conditions: nebulized 1 μM thapsigargin or 50 microM curcumin, 3 hours/day for 7-14 days
Description: Materials and Methods. CF mice, which were the kind gift of Mitch Drumm, have had the ΔF508 mutation introduced into their endogenous copies of the CFTR gene by homologous recombination and are homozygous for the ΔF508 mutation. Construction of these mice is described in Zeiher, G. B., et al., A mouse model for the delta F508 allele of cystic fibrosis. J. Clin. Invest. 96: 2051-2064, 1995, and additional studies of these mice are described in Steagall W K and Drumm M L, Stimulation of cystic fibrosis transmembrane conductance regulator-dependent short-circuit currents across Delta F508 murine intestines. Gastroenterology, 116(6):1379-88, 1999.
Nasal potential difference was measured essentially as described in Grubb, B. R., Vick, R. N., and Boucher, R. C., Hyperabsorption of Na^+ and raised Ca^2+-mediated Cl^− secretion in nasal epithelia of CF mice, Am. […]
After obtaining a stable baseline reading, infusion of Ringers solution was begun, and recording was initiated. After 5 mins of stable reading, the solution was changed successively to: (i) Ringer solution containing amiloride 10^−5 M; (ii) Ringer solution containing 0 mM chloride and 10^−5 M amiloride; (iii) Ringer solution containing 0 mM chloride, 10^−5 M amiloride, and 10^−5 M isoproterenol. NPD was recorded for each solution for 5 minutes of stable values. […]

[3] = nebulized 1 μM thapsigargin, 14 days, 4 mice examined

C/C=C(/C)C(=O)O[C@H]1C(C)=C2[C@H]([C@@H]1OC(=O)CCCCCCC)[C@@](C)(OC(C)=O)C[C@H](OC(=O)CCC)[C@@]1(O)[C@H]2OC(=O)[C@@]1(C)O [thapsigargin]
ill effects during or between treatments ([1]; nebulized 1 μM thapsigargin, 3 to 4 hours per day for 14 days, six mice): no obvious ill effects | cellular architecture of the lungs [1, 3]: completely normal | peribronchiolar lymphocytes [1, 3]: One of the specimens exhibited a moderate peribronchiolar lymphocytic infiltration | morbidity under treatment ([1]; nebulized 1 microM thapsigargin or 50 microM curcumin, 3 hours/day for 7-14 days): without exhibiting any obvious morbidity | radiolabeled α1-antitrypsin in the media [2]: Radiolabeled α1-antitrypsin protein is present in the media | mature CFTR in lysates (ΔF508-CFTR): contained the ˜170 kDa mature form of the ΔF508CFTR protein | basal NPD of treated ΔF508 CF mice (ΔF508 CFTR mice): markedly reduced relative to that in untreated CF mice; also recorded: dramatically reduce the basal NPD; also recorded: significantly smaller baseline NPD
